# Assay results published in patent US10550143B2, “C,O-spiro aryl glycoside compounds, preparation therefor and use thereof” (SHANGHAI INSTITUTE OF MATERIA MEDICA, CHINESE ACADEMY OF …, priority 2015, dated 2020).
# Tests used:
# [1] = test system: SD rats; assay: Acute administration of A28 at multiple doses, urinary glucose of SD rats; type: in vivo, rat; details: within 24 h
# Procedure: (1) 72 normal male SD rats were selected and randomly divided into 9 groups according to body weight and blood glucose, 8 in each group. […] After oral gavage, the rats were placed in rats metabolic cages, and urine was collected after 24 h, and the urine volume was recorded, then preserved under −20° C. Rats take food and water freely during the experimental period.
# (2) Index Determination: Glucose levels in urine are measured by the glucose assay kit.
# [2] = test system: db/db mice; assay: Acute administration at multiple doses, random blood glucose in db/db mice; type: in vivo, mouse; details: for Blood glucose level 0 h: before administration
# Procedure: (1) 127 db/db mice (half male and half female) entered the animal laboratory of the institute at 7 weeks of age and were grouped at 10 weeks of age. Random blood glucose and random body weight of all db/db mice were determined at 9:00 am, and then fasted for 6 hours (free drinking). Fasting blood glucose and fasting body weight were determined, and blood was collected (10 μl EDTA+20 μl tail blood, centrifugated to collect supernatant) to determine the insulin content. […] The db/db mice were once orally administered at a dose of 10 mL/kg. Blood glucose levels were measured before administration, and at 1 h, 2 h, 3 h, 4 h, 6 h after administration, and the administration times and body weights were recorded. Mice took food and water freely during the experiment.
# Average hypoglycemic rate %=(model control group−administration group)/(model control group−blank control group)*100%
# [3] = test system: C57BL/6J mice; assay: Acute administration of A28 at multiple doses, oral glucose tolerance of C57BL/6J mice; type: in vivo, mouse; details: C57BL/6J mice OGTT; for Blood glucose level 0: before sugar
# Procedure: (1) Experimental Methods: 56 C57BL/6J mice were selected and starved for 6 h, took water freely, then randomly divided into 7 groups according to body weight and random blood glucose, 8 rats in each group. […] Average hypoglycemic rate %=(AUC0-120 min of solvent control group−AUC0-120 min of administration group)/(AUC0-120 min of solvent control group−AUC0-120 min of blank control group)*100%
# [4] = test system: db/db mice; assay: Chronic administration, glucose-stimulated insulin release in db/db mice; type: in vivo, mouse; details: glucose-stimulated insulin release, chronic administration
# Procedure: Oral gavage administrated, daily dose volume was 10 mL/kg, administered once daily. Administration time was 9: 00-10:00 daily, and the administration period was 5 weeks.
# The fourth week after administration, the mice were starved for 6 hours after morning administration and were orally administrated with glucose (1.5 g/kg), and blood was collected from the tail (10 μL EDTA+20 μL tail blood). Centrifuged and the supernatant was taken, stored at −20° C. for insulin test.
structure (smiles),measurement,setting,value
CCOc1ccc(Cc2cc([C@@H]3O[C@H](CO)[C@@H](O)[C@H](O)[C@H]3O)ccc2Cl)cc1 [Dapa],Total sugar excretion,[1]; oral 1 mg/kg,706.69 ± 39.98 mg/100 g
same,Urine concentration,[1]; oral 1 mg/kg,313.13 ± 16.92 mmol/L
same,Urine volume,[1]; oral 1 mg/kg,31.38 ± 1.99 mL
same,Total sugar excretion,[1]; oral 3 mg/kg,859.30 ± 41.55 mg/100 g
same,Urine concentration,[1]; oral 3 mg/kg,327.16 ± 24.63 mmol/L
same,Urine volume,[1]; oral 3 mg/kg,36.88 ± 1.55 mL
same,AUC0-6 h,[2]; single oral 1 mg/kg,67.8 ± 2.5 mmol·h/L
same,Blood glucose level 1 h,[2]; single oral 1 mg/kg,13.0 ± 0.7 mmol/L
same,Blood glucose level 2 h,[2]; single oral 1 mg/kg,11.4 ± 0.6 mmol/L
same,Blood glucose level 3 h,[2]; single oral 1 mg/kg,10.2 ± 0.6 mmol/L
same,Blood glucose level 4 h,[2]; single oral 1 mg/kg,9.8 ± 0.7 mmol/L
same,Blood glucose level 6 h,[2]; single oral 1 mg/kg,8.8 ± 0.6 mmol/L
same,Blood glucose level 0 h,[2]; single oral 1 mg/kg,19.3 ± 1.3 mmol/L
same,AUC0-6 h,[2]; single oral 3 mg/kg,59.7 ± 1.7 mmol·h/L
same,Blood glucose level 1 h,[2]; single oral 3 mg/kg,11.8 ± 0.5 mmol/L
same,Blood glucose level 2 h,[2]; single oral 3 mg/kg,8.5 ± 0.4 mmol/L
same,Blood glucose level 3 h,[2]; single oral 3 mg/kg,8.6 ± 0.5 mmol/L
same,Blood glucose level 4 h,[2]; single oral 3 mg/kg,8.5 ± 0.3 mmol/L
same,Blood glucose level 6 h,[2]; single oral 3 mg/kg,9.4 ± 0.7 mmol/L
same,Blood glucose level 0 h,[2]; single oral 3 mg/kg,17.5 ± 1.3 mmol/L
same,AUC0-2 h,[3]; oral 0.3 mg/kg,20.9 ± 1.6 mmol·h/L
same,Average hypoglycemic rate % (0-2 h),[3]; oral 0.3 mg/kg,4.9%
same,Blood glucose level 15 min,[3]; oral 0.3 mg/kg,13.4 ± 2.3 mmol/L
same,Blood glucose level 30 min,[3]; oral 0.3 mg/kg,12.1 ± 1.0 mmol/L
same,Blood glucose level 60 min,[3]; oral 0.3 mg/kg,10.6 ± 1.0 mmol/L
same,Blood glucose level 90 min,[3]; oral 0.3 mg/kg,9.3 ± 1.1 mmol/L
same,Blood glucose level 120 min,[3]; oral 0.3 mg/kg,8.8 ± 0.8 mmol/L
same,Blood glucose level 0,[3]; oral 0.3 mg/kg,7.1 ± 0.4 mmol/L
same,AUC0-2 h,[3]; oral 1 mg/kg,19.3 ± 1.3 mmol·h/L
same,Average hypoglycemic rate % (0-2 h),[3]; oral 1 mg/kg,12.4%
same,Blood glucose level 15 min,[3]; oral 1 mg/kg,12.3 ± 1.1 mmol/L
same,Blood glucose level 30 min,[3]; oral 1 mg/kg,12.0 ± 1.1 mmol/L
same,Blood glucose level 60 min,[3]; oral 1 mg/kg,9.1 ± 1.1 mmol/L
same,Blood glucose level 90 min,[3]; oral 1 mg/kg,8.4 ± 0.9 mmol/L
same,Blood glucose level 120 min,[3]; oral 1 mg/kg,8.5 ± 0.9 mmol/L
same,Blood glucose level 0,[3]; oral 1 mg/kg,6.5 ± 0.9 mmol/L
same,AUC0-2 h,[3]; oral 3 mg/kg,18.2 ± 1.6 mmol·h/L
same,Average hypoglycemic rate % (0-2 h),[3]; oral 3 mg/kg,17.5%
same,Blood glucose level 15 min,[3]; oral 3 mg/kg,11.6 ± 0.9 mmol/L
same,Blood glucose level 30 min,[3]; oral 3 mg/kg,11.6 ± 1.1 mmol/L
same,Blood glucose level 60 min,[3]; oral 3 mg/kg,8.9 ± 1.4 mmol/L
same,Blood glucose level 90 min,[3]; oral 3 mg/kg,7.9 ± 1.1 mmol/L
same,Blood glucose level 120 min,[3]; oral 3 mg/kg,7.0 ± 0.6 mmol/L
same,Blood glucose level 0,[3]; oral 3 mg/kg,6.1 ± 1.0 mmol/L
same,Insulin AUC,[4]; dose 1 mg/kg,27.89 ± 3.63
same,Insulin (ng/ml) 0 min,[4]; dose 1 mg/kg,12.92 ± 1.17 ng/mL
same,Insulin (ng/ml) 15 min,[4]; dose 1 mg/kg,35.99 ± 5.34 ng/mL
same,Insulin (ng/ml) 30 min,[4]; dose 1 mg/kg,29.85 ± 4.97 ng/mL
same,Insulin (ng/ml) 60 min,[4]; dose 1 mg/kg,24.33 ± 2.90 ng/mL
same,Insulin (ng/ml) pre,[4]; dose 1 mg/kg,8.05 ± 1.10 ng/mL
same,Insulin AUC,[4]; dose 3 mg/kg,22.69 ± 2.89
same,Insulin (ng/ml) 0 min,[4]; dose 3 mg/kg,8.41 ± 1.07 ng/mL
same,Insulin (ng/ml) 15 min,[4]; dose 3 mg/kg,21.29 ± 3.11 ng/mL
same,Insulin (ng/ml) 30 min,[4]; dose 3 mg/kg,22.60 ± 3.22 ng/mL
same,Insulin (ng/ml) 60 min,[4]; dose 3 mg/kg,31.36 ± 5.44 ng/mL
same,Insulin (ng/ml) pre,[4]; dose 3 mg/kg,8.15 ± 0.91 ng/mL
